This is an account of results in US8177962B2, “Metal corrosion inhibitor and hydrogen chloride formation inhibitor in a crude oil atmospheric distillation unit” (Kurita Water Industries, Ltd., priority 2002, dated 2012).

The conditions of data set [1]: thermal decomposition at 760° C., GC/MS, FIG. 3. As for the experimental part: Choline chloride was subjected to thermal decomposition GC/MS analysis. 5989A manufactured by Hewlett Packard was used as the GC/MS analyzer, and DB624 manufactured by J&W (0.32 mm×30 m, membrane thickness of 1.8 μm) was used as the column. The temperature for thermal decomposition of choline chloride was 760° C.

Data set [2] in a line: Base dissociation constant (Kb) calculated from pH meter measurement. Format: physicochemical. The following applies: for Kb value (25° C.): Table 1; for Kb (25° C.) / Kb (170° C.): Table 6.

As to `C[N+](C)(C)CCO.[Cl-]` [Choline hydrochloride (choline chloride), choline chloride], the thermal decomposition products entry in data set [1] is “produces methyl chloride, trimethylamine and N,N-dimethylaminoethanol by thermal decomposition, but does not produce hydrogen chloride”.
In the case of `C[N+](C)(C)CCO.[OH-]` [Choline, (β-hydroxyethyl)trimethylammonium hydroxide], in data set [2], the “Kb value (25° C.)” value is recorded as 3.14 × 10^−3, the “Kb (25° C.)” value is 3.14 × 10^−3 and the “Kb (170° C.)” value is 8.40 × 10^−3.
Consider `NC1CCCCC1` [Cyclohexylamine], for which the “Kb value (25° C.)” value in data set [2] is listed as 3.39 × 10^−4.
For `NCCO` [Monoethanolamine], in data set [2], the “Kb value (25° C.)” value is 3.15 × 10^−5, the “Kb (25° C.)” value was 2.60 × 10^−5 and the “Kb (170° C.)” value is 8.42 × 10^−6.
For the molecule `C1COCCN1` [Morpholine], the “Kb value (25° C.)” value in data set [2] was 2.09 × 10^−6.
For the molecule Dimethylethanolamine, in data set [2], the “Kb (25° C.)” value is 2.21 × 10^−5 and the “Kb (170° C.)” value is 3.38 × 10^−5.
